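Method: 48-hour compound exposure of cells in 96-well plates, five concentrations, linear interpolation of endpoints. The concentration for full growth arrest is given as TGI.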
What was measured:
Assay in all cases: inhibition of tumour cell growth, NCI panel, 48 h
A498 renal = test system: A498 renal
CCRF-CEM leukemia = test system: CCRF-CEM leukemia
COLO 205 colon = test system: COLO 205 colon
HOP-92 NSCLC = test system: HOP-92 NSCLC
HS 578T breast = test system: HS 578T breast
HT29 colon = test system: HT29 colon
MCF7 breast = test system: MCF7 breast
MDA-MB-231 breast = test system: MDA-MB-231 breast
MOLT-4 leukemia = test system: MOLT-4 leukemia
NCI-H460 lung = test system: NCI-H460 lung
NCI/ADR-RES ovarian = test system: NCI/ADR-RES ovarian
OVCAR-3 ovarian = test system: OVCAR-3 ovarian
OVCAR-5 ovarian = test system: OVCAR-5 ovarian
RPMI-8226 leukemia = test system: RPMI-8226 leukemia
SK-MEL-28 melanoma = test system: SK-MEL-28 melanoma
SK-MEL-5 melanoma = test system: SK-MEL-5 melanoma
SN12C renal = test system: SN12C renal
SR leukemia = test system: SR leukemia
SW-620 colon = test system: SW-620 colon
TK-10 renal = test system: TK-10 renal

Compound | TGI (A498 renal) | TGI (CCRF-CEM leukemia) | TGI (COLO 205 colon) | TGI (HOP-92 NSCLC) | TGI (HS 578T breast) | TGI (HT29 colon) | TGI (MCF7 breast) | TGI (MDA-MB-231 breast) | TGI (MOLT-4 leukemia) | TGI (NCI-H460 lung) | TGI (NCI/ADR-RES ovarian) | TGI (OVCAR-3 ovarian) | TGI (OVCAR-5 ovarian) | TGI (RPMI-8226 leukemia) | TGI (SK-MEL-28 melanoma) | TGI (SK-MEL-5 melanoma) | TGI (SN12C renal) | TGI (SR leukemia) | TGI (SW-620 colon) | TGI (TK-10 renal)
Cn1c(=S)[nH]c(N)c(Cc2ccccc2)c1=O | > 100 µM | > 100 µM | > 100 µM | 97.1 µM | > 100 µM | > 100 µM | > 100 µM | > 100 µM | > 100 µM | > 100 µM | > 100 µM | > 100 µM | > 100 µM | > 100 µM | > 100 µM | > 100 µM | > 100 µM | > 100 µM | > 100 µM | > 100 µM
CCCCCCCCCCCCc1ccsc1-c1ccc(-c2ccc(-c3sccc3CCCCCCCCCCCC)s2)s1 | > 100 µM | > 100 µM | > 100 µM | > 100 µM | > 100 µM | > 100 µM | > 100 µM | > 100 µM | > 100 µM | > 100 µM | > 100 µM | > 100 µM | > 100 µM | > 100 µM | > 100 µM | > 100 µM | > 100 µM | > 100 µM | > 100 µM | > 100 µM
